Measurements reported in patent US7875647B2, “Heteroaryl-pyrazole derivatives as cannabinoid CB1 receptor antagonists” (Green Cross Corporation, priority 2006, dated 2011).
Where two headings read alike, the source gives them in different places.

Molecular target: T1, Cannabinoid-1 receptor (CB1R) (Rattus norvegicus, UniProt P20272)
T1 construct: The tissue obtained from the brain of SD rats was homogenized; from tissue; host or cells: brain of SD rats (membrane pellet of the homogenate)
Test: Cannabinoid-1 receptor (CB1R) binding affinity assay ([3H]CP-55940, rat CB-1 receptor binding protocol)
Details: brain tissue of SD rats, [3H]CP-55940, 30° C. 60 min

T1 sequence (P20272 whole entry): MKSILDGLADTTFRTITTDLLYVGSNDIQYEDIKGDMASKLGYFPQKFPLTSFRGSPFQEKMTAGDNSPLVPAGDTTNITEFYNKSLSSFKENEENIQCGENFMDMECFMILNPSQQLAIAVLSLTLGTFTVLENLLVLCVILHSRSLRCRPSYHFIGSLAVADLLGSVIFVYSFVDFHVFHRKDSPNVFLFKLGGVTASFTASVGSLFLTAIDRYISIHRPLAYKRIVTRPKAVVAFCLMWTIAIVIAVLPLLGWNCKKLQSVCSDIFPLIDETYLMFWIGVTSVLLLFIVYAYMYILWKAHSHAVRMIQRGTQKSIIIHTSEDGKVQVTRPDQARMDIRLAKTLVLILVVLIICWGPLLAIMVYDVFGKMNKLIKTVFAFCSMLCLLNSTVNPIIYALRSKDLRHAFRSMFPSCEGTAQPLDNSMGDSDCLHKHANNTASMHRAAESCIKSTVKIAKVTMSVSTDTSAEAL

Compound	IC50 (read-out: IC50)	IC50 (IC50(nM))
CCCCOC(C)(C)c1nnc(-c2nn(-c3ccc(Cl)cc3Cl)c(-c3ccc(Cl)cc3)c2C)s1 [Example 457, 2-(2-butoxypropan-2-yl)-5-(5-(4-chlorophenyl)-1-(2,4-dichlorophenyl)-4-methyl-1H-pyrazol-3-yl)-1,3,4-thiadiazole]	16.9 nM	–
COc1ccc(C2(c3nnc(-c4nn(-c5ccc(Cl)cc5Cl)c(-c5ccc(Cl)cc5)c4C)s3)CC2)cc1 [Example 458, 2-(5-(4-chlorophenyl)-1-(2,4-dichlorophenyl)-4-methyl-1H-pyrazol-3-yl)-5-(1-(4-methoxyphenyl)cyclopropyl)-1,3,4-thiadiazole]	25.8 nM	–
Cc1c(-c2nnc(C3(c4ccc(Cl)cc4Cl)CC3)s2)nn(-c2ccc(Cl)cc2Cl)c1-c1ccc(Cl)cc1 [Example 459, 2-(5-(4-chlorophenyl)-1-(2,4-dichlorophenyl)-4-methyl-1H-pyrazol-3-yl)-5-(1-(2,4-dichlorophenyl)cyclopropyl)-1,3,4-thiadiazole]	10.8 nM	–
Cc1ccc(C2(c3nnc(-c4nn(-c5ccc(Cl)cc5Cl)c(-c5ccc(Cl)cc5)c4C)s3)CC2)cc1 [Example 460, 2-(5-(4-chlorophenyl)-1-(2,4-dichlorophenyl)-4-methyl-1H-pyrazol-3-yl)-5-(1-p-tolylcyclopropyl)-1,3,4-thiadiazole]	20.1 nM	–
CCCCCOC(C)(C)c1nnc(-c2nn(-c3ccc(Cl)cc3Cl)c(-c3ccc(Cl)cc3)c2C)s1 [Example 461, 2-(5-(4-chlorophenyl)-1-(2,4-dichlorophenyl)-4-methyl-1H-pyrazol-3-yl)-5-(2-(pentyloxy)propan-2-yl)-1,3,4-thiadiazole]	–	13.7 nM
Cc1c(-c2nnc(C3(C(F)(F)F)CC3)s2)nn(-c2ccc(Cl)cc2Cl)c1-c1ccc(Cl)cc1 [Example 462, 2-(5-(4-chlorophenyl)-1-(2,4-dichlorophenyl)-4-methyl-1H-pyrazol-3-yl)-5-(1-(trifluoromethyl)cyclopropyl)-1,3,4-thiadiazole]	36.5 nM	–
CCc1c(-c2nnc(C3(c4ccc(Cl)cc4)CC3)s2)nn(-c2ccc(Cl)cc2Cl)c1-c1ccc(Cl)cc1 [Example 463, 2-(5-(4-chlorophenyl)-1-(2,4-dichlorophenyl)-4-ethyl-1H-pyrazol-3-yl)-5-(1-(4-chlorophenyl)cyclopropyl)-1,3,4-thiadiazole]	3.95 nM	–
CCc1c(-c2nnc(C3(c4ccc(Cl)cc4)CC3)s2)nn(-c2ccccc2Cl)c1-c1ccc(Br)cc1 [Example 464, 2-(5-(4-bromophenyl)-1-(2-chlorophenyl)-4-ethyl-1H-pyrazol-3-yl)-5-(1-(4-chlorophenyl)cyclopropyl)-1,3,4-thiadiazole]	4.41 nM	–
Cc1c(-c2nnc(C3(C(F)(F)F)CCC3)s2)nn(-c2ccc(Cl)cc2Cl)c1-c1ccc(Cl)cc1 [Example 465, 2-(5-(4-chlorophenyl)-1-(2,4-dichlorophenyl)-4-methyl-1H-pyrazol-3-yl)-5-(1-(trifluoromethyl)cyclobutyl)-1,3,4-thiadiazole]	33.9 nM	–
Cc1c(-c2nnc(CC(F)(F)F)s2)nn(-c2ccc(Cl)cc2Cl)c1-c1ccc(Cl)cc1 [Example 466, 2-(5-(4-chlorophenyl)-1-(2,4-dichlorophenyl)-4-methyl-1H-pyrazol-3-yl)-5-(2,2,2-trifluoroethyl)-1,3,4-thiadiazole]	102 nM	–
CCc1c(-c2nnc(C3(Cc4ccccc4)CC3)s2)nn(-c2ccc(Cl)cc2Cl)c1-c1ccc(Br)cc1 [Example 468, 2-(1-benzylcyclopropyl)-5-(5-(4-bromorophenyl)-1-(2,4-dichlorophenyl)-4-ethyl-1H-pyrazol-3-yl)-1,3,4-thiadiazole]	5.94 nM	–
Cc1c(-c2nnc(C3(C)CC3)s2)nn(-c2ccc(Cl)cc2Cl)c1-c1ccc(Cl)cc1 [Example 469, 2-(5-(4-chlorophenyl)-1-(2,4-dichlorophenyl)-4-methyl-1H-pyrazol-3-yl)-5-(1-methylcyclopropyl)-1,3,4-thiadiazole]	36.3 nM	–
CCc1c(-c2nnc(C3(C)CC3)s2)nn(-c2ccc(Cl)cc2Cl)c1-c1ccc(Br)cc1 [Example 470, 2-(5-(4-bromophenyl)-1-(2,4-dichlorophenyl)-4-ethyl-1H-pyrazol-3-yl)-5-(1-methylcyclopropyl)-1,3,4-thiadiazole]	11.8 nM	–
Cc1c(-c2nnc(C3(Cc4ccc(Cl)cc4)CC3)s2)nn(-c2ccc(Cl)cc2Cl)c1-c1ccc(Cl)cc1 [Example 471, 2-(1-(4-chlorobenzyl)cyclopropyl)-5-(5-(4-chlorophenyl)-1-(2,4-dichlorophenyl)-4-methyl-1H-pyrazol-3-yl)-1,3,4-thiadiazole]	27.2 nM	–
CCc1c(-c2nnc(C3(Cc4ccc(Cl)cc4)CC3)s2)nn(-c2ccc(Cl)cc2Cl)c1-c1ccc(Br)cc1 [Example 472, 2-(1-(4-chlorobenzyl)cyclopropyl)-5-(5-(4-bromophenyl)-1-(2,4-dichlorophenyl)-4-ethyl-1H-pyrazol-3-yl)-1,3,4-thiadiazole]	6.66 nM	–
CCc1c(-c2nnc(C3(c4ccc(OC)cc4)CC3)s2)nn(-c2ccc(Cl)cc2Cl)c1-c1ccc(Br)cc1 [Example 473, 2-(5-(4-bromophenyl)-1-(2,4-dichlorophenyl)-4-ethyl-1H-pyrazol-3-yl)-5-(1-(4-methoxyphenyl)cyclopropyl)-1,3,4-thiadiazole]	4.53 nM	–

Compound	IC50 (read-out: IC50)	IC50 (IC50(nM))
CCc1c(-c2nnc(C3(c4ccc(C)cc4)CC3)s2)nn(-c2ccc(Cl)cc2Cl)c1-c1ccc(Br)cc1 [Example 474, 2-(5-(4-bromophenyl)-1-(2,4-dichlorophenyl)-4-ethyl-1H-pyrazol-3-yl)-5-(1-p-tolylcyclopropyl)-1,3,4-thiadiazole]	18.8 nM	–
CCc1c(-c2nnc(C3(c4ccccc4)CC3)s2)nn(-c2ccc(Cl)cc2Cl)c1-c1ccc(Br)cc1 [Example 475, 2-(5-(4-bromophenyl)-1-(2,4-dichlorophenyl)-4-ethyl-1H-pyrazol-3-yl)-5-(1-phenylcyclopropyl)-1,3,4-thiadiazole]	8.75 nM	–
CCc1c(-c2nnc(C3(c4ccc(Cl)cc4)CC3)s2)nn(-c2ccc(Cl)cc2Cl)c1-c1ccc(Br)cc1 [Example 477, 2-(5-(4-bromophenyl)-1-(2,4-dichlorophenyl)-4-ethyl-1H-pyrazol-3-yl)-5-(1-(4-chlorophenyl)cyclopropyl)-1,3,4-thiadiazole]	4.1 nM	–
CCc1c(-c2nnc(C3(c4ccc(Cl)cc4Cl)CC3)s2)nn(-c2ccc(Cl)cc2Cl)c1-c1ccc(Br)cc1 [Example 478, 2-(5-(4-bromophenyl)-1-(2,4-dichlorophenyl)-4-ethyl-1H-pyrazol-3-yl)-5-(1-(2,4-dichlorophenyl)cyclopropyl)-1,3,4-thiadiazole]	6.49 nM	–
CCc1c(-c2nnc(C3(c4ccccc4)CC3)s2)nn(-c2ccc(Cl)cc2Cl)c1-c1ccc(Cl)cc1 [Example 479, 2-(5-(4-chlorophenyl)-1-(2,4-dichlorophenyl)-4-ethyl-1H-pyrazol-3-yl)-5-(1-phenylcyclopropyl)-1,3,4-thiadiazole]	6.56 nM	–
CCc1c(-c2nnc(C3(c4ccc(C)cc4)CC3)s2)nn(-c2ccc(Cl)cc2Cl)c1-c1ccc(Cl)cc1 [Example 480, 2-(5-(4-chlorophenyl)-1-(2,4-dichlorophenyl)-4-ethyl-1H-pyrazol-3-yl)-5-(1-p-tolylcyclopropyl)-1,3,4-thiadiazole]	5.08 nM	–
CCc1c(-c2nnc(C3(c4ccc(OC)cc4)CC3)s2)nn(-c2ccc(Cl)cc2Cl)c1-c1ccc(Cl)cc1 [Example 481, 2-(5-(4-chlorophenyl)-1-(2,4-dichlorophenyl)-4-ethyl-1H-pyrazol-3-yl)-5-(1-(4-methoxyphenyl)cyclopropyl)-1,3,4-thiadiazole]	7.6 nM	–
CCc1c(-c2nnc(C3(c4ccc(Cl)cc4Cl)CC3)s2)nn(-c2ccc(Cl)cc2Cl)c1-c1ccc(Cl)cc1 [Example 482, 2-(5-(4-chlorophenyl)-1-(2,4-dichlorophenyl)-4-ethyl-1H-pyrazol-3-yl)-5-(1-(2,4-dichlorophenyl)cyclopropyl)-1,3,4-thiadiazole]	3.94 nM	–
CCc1c(-c2nnc(C3(c4ccc(Cl)cc4)CCC3)s2)nn(-c2ccc(Cl)cc2Cl)c1-c1ccc(Cl)cc1 [Example 483, 2-(5-(4-chlorophenyl)-1-(2,4-dichlorophenyl)-4-ethyl-1H-pyrazol-3-yl)-5-(1-(4-chlorophenyl)cyclobutyl)-1,3,4-thiadiazole]	–	2.32 nM
CCc1c(-c2nnc(C3(C)CC3)s2)nn(-c2ccc(Cl)cc2Cl)c1-c1ccc(Cl)cc1 [Example 484, 2-(5-(4-chlorophenyl)-1-(2,4-dichlorophenyl)-4-ethyl-1H-pyrazol-3-yl)-5-(1-methylcyclopropyl)-1,3,4-thiadiazole]	31.5 nM	–
CCc1c(-c2nnc(C3(c4ccccc4)CCCC3)s2)nn(-c2ccc(Cl)cc2Cl)c1-c1ccc(Br)cc1 [Example 485, 2-(5-(4-bromophenyl)-1-(2,4-dichlorophenyl)-4-ethyl-1H-pyrazol-3-yl)-5-(1-phenylcyclopentyl)-1,3,4-thiadiazole]	32.8 nM	–
CCc1c(-c2nnc(C3(c4ccc(Cl)cc4)CCCC3)s2)nn(-c2ccc(Cl)cc2Cl)c1-c1ccc(Br)cc1 [Example 486, 2-(5-(4-bromophenyl)-1-(2,4-dichlorophenyl)-4-ethyl-1H-pyrazol-3-yl)-5-(1-(4-chlorophenyl)cyclopentyl)-1,3,4-thiadiazole]	23 nM	–
Cc1c(-c2nnc(C3(c4ccccc4)CC3)s2)nn(-c2ccc(Cl)cc2Cl)c1-c1ccc(Cl)cc1 [Example 487, 2-(5-(4-chlorophenyl)-1-(2,4-dichlorophenyl)-4-methyl-1H-pyrazol-3-yl)-5-(1-phenylcyclopropyl)-1,3,4-thiadiazole]	9.6 nM	–
CCC1(c2nnc(-c3nn(-c4ccc(Cl)cc4Cl)c(-c4ccc(Cl)cc4)c3C)s2)CC1 [Example 488, 2-(5-(4-chlorophenyl)-1-(2,4-dichlorophenyl)-4-methyl-1H-pyrazol-3-yl)-5-(1-ethylcyclopropyl)-1,3,4-thiadiazole]	106 nM	–
CCc1c(-c2nnc(C3(CC)CC3)s2)nn(-c2ccc(Cl)cc2Cl)c1-c1ccc(Cl)cc1 [Example 489, 2-(5-(4-chlorophenyl)-1-(2,4-dichlorophenyl)-4-ethyl-1H-pyrazol-3-yl)-5-(1-ethylcyclopropyl)-1,3,4-thiadiazole]	19.8 nM	–
